{
  "source": "paper PMC3740347",
  "about": "(Journal of the American Chemical Society, 2013)",
  "key": {"[1]": {"molecular_target": "T1, GST-VH1 (Vaccinia virus, UniProt P07239)"}, "[2]": {"molecular_target": "T1, GST-VH1", "details": "pH 7.4"}},
  "note": "Where two headings read alike, the source gives them in different places.",
  "data": [
    {"substance": "HQYFMpTEYVAT", "values": [
      {"measurement": "kcat/KM", "setting": "[1]", "value": 490, "unit": "M⁻¹ s⁻¹"}
    ]},
    {"substance": "HQYFMpTEpYVAT", "values": [
      {"measurement": "kcat/KM", "setting": "[1]", "value": 3200, "unit": "M⁻¹ s⁻¹"}
    ]},
    {"substance": "YDEDFpYDYEF [Peptide 26]", "values": [
      {"measurement": "Km", "setting": "[2]", "value": 11, "unit": "µM"},
      {"measurement": "kcat", "setting": "[2]", "value": 2.6, "unit": "s⁻¹"}
    ]},
    {"substance": "YNAFAIpTAA [Peptide 2]", "values": [
      {"measurement": "fold decrease of VH1 catalytic activity relative to parent peptide", "setting": "[1]", "value": "~ 2 fold"},
      {"measurement": "Km", "setting": "[1]; pH 7.4", "value": "> 2000", "unit": "µM"},
      {"measurement": "kcat/KM", "setting": "[1]; pH 7.4", "value": "93 ± 3", "unit": "M⁻¹ s⁻¹"}
    ]}
  ]
}
